For assay [1], the system named is antibody D12 single-chain Fv (VH SEQ ID NO:2, VL SEQ ID NO:12). As to the kind of experiment: ELISA, inhibition of antibody binding to BSA-estradiol by soluble steroid. On the set-up: species or system human. Here is the method:
An ELISA-based screening method was used to rank different clones on the basis of their relative equilibrium dissociation constants for estradiol. In this assay, crude culture supernatant was equilibrated with soluble steroids at a range of concentrations (10 μM, 1 μM, 100 nM and zero estradiol) then applied to ELISA wells coated with […]. Affinity for the soluble steroid was then indicated by a reduction in ELISA signal intensity due to the antibody being in complex with the soluble ligand and unavailable for binding to the plate. This gives a reduction in ELISA signal.
The binding properties of other steroids were investigated by measuring their ability to compete with estradiol for binding to D12 antibody. This was investigated using the ELISA based screening method (Example 2b) and any cross-reacting compounds were investigated further by equilibrium dialysis.
Culture supernatant from the antibody clone D12 was equilibrated with soluble steroid at a range of concentrations from 5 nM to 100 mM (or the limit solubility of the steroid), then transferred to an ELISA plate coated with BSA-estradiol. The ELISA plate was then processed as for a standard phage ELISA assay. Affinity for the soluble competing steroid was then indicated by a reduction in ELISA signal intensity due to the antibody being in complex with the soluble ligand and unavailable for binding to the plate.
In general terms: ELISA stands for enzyme-linked immunosorbent assay.

Assay [2] deals with mouse monoclonal antibody DB3. As to conditions: read-out: dissociation constant; cited from earlier work.
Assay [3] deals with progesterone-binding antibody from a non immunised murine repertoire. As to conditions: cited from earlier work.
Assay [4] concerns antibody D12 single-chain Fv (VH SEQ ID NO:2, VL SEQ ID NO:12; clone 1C with Ala80-Val80 in the lambda light chain). As to the kind of experiment: Equilibrium dialysis, competition of steroids with tritium labelled estradiol for antibody D12. Type of assay: binding, human. As to conditions: for Kd: D12 13.3 nM, 4 nM tritium labelled estradiol, competing steroid 100 nM to 100 μM, competitive inhibition assumed, read-out: affinities (dissociation constants) for cross-reactive steroids. Here is the method: Dissociation constants were measured by equilibrium dialysis using conditions described for testosterone and estriol (FIG. 3 and the description of FIG. 3 given below). All steroids were tested at concentrations ranging from 10 nM to their solubility limits in PBS. The dissociation constants of antibody D12 for these compounds were calculated assuming that they were competitive inhibitors of estradiol binding.
Antibody D12 (13.3 nM) was incubated with 4 nM tritium labelled estradiol, plus competing steroid (100 nM to 100 μM). Pooled data from 3 experiments. Equilibrium dialysis was carried out for 20 hr at 22° C. in phosphate buffered saline with a membrane having a 12 kDa exclusion limit.
Antibody D12 (at a concentration of 13.3 nM) was incubated for 2 h with a mixture containing both tritium labelled estradiol (4 nM) and the competing steroid (100 nM to 100 μM), before equilibrium dialysis. The binding of other steroids to D12 antibody was quantified assuming competitive inhibition of estradiol binding. Data was analyzed with proprietary software (FIG.P package: Elsevier Biosoft).
On the technique in general: In equilibrium dialysis only unbound substance equilibrates across the membrane.

Assay [5] concerns the target antibody D12 single-chain Fv (VH SEQ ID NO:2, VL SEQ ID NO:12; clone 1C with Ala80-Val80 in the lambda light chain). As to the kind of experiment: Equilibrium dialysis, binding of tritium labelled estradiol to antibody D12. On the set-up: species or system human. As to conditions: 22° C., PBS, 20 hr, read-out: dissociation constant for estradiol. The method, then: Antibody diluted 4-fold to 200-fold was incubated with 50 pM tritium labelled estradiol plus unlabelled estradiol giving total estradiol concentrations from 100 pM to 100 μM. […] Equilibrium dialysis was carried out for 20 hr at 22° C. in phosphate buffered saline with a membrane having a 12 kDa exclusion limit.
Equilibrium dialysis was carried out at 22° C. in phosphate-bufferedsaline (PBS) using a microdialyzer (Hoefer) with a membrane having a 12 kDa exclusion limit. […] Antibody diluted 4-fold to 200-fold (from 0.7 nM to 33 nM, based on concentrations calculated from binding data) was incubated with 50 pM labelled estradiol (Amersham, tritium-labelled at positions 2,4,6,7,16,17) plus unlabelled estradiol to give total estradiol concentrations from 100 pM-100 μM. Mixtures were equilibrated for 2 h at 22° C. and dialysed against PBS for 20 h with constant mixing, before taking samples from each chamber for measurement of radioactivity.
Over the range of ligand concentrations necessary for affinity measurement (up to 100 nM), less than 10% of labelled estradiol bound non-specifically. After subtraction of non-specific binding, the dissociation constant (Kd) of estradiol binding to antibody D12 was calculated from equilibrium dialysis data using a non-linear least-squaresfit, assuming a single class of binding sites.

Setting [6] is: soluble steroid 5 nM to 100 mM (or the limit solubility of the steroid).

“Also recorded” adds a separate entry of the source.

Regarding `CC(=O)[C@H]1CC[C@H]2[C@@H]3CCC4=CC(=O)CC[C@]4(C)[C@H]3CC[C@]12C` [progesterone], the “inhibition of binding to BSA-estradiol in ELISA” value (from here on “inhibition of binding”) in assay [1] (soluble steroid at 100 μM) is on record as “inhibited estradiol binding; also recorded: inhibited only at very high concentrations”. In addition, the Kd in assay [2] is approximately 0.001 µM. Also, the dissociation constant entry in assay [3] is reported as “only micromolar”. Take `C[C@]12CC[C@@H]3c4ccc(OS(=O)(=O)O)cc4CC[C@H]3[C@@H]1C[C@@H](O)[C@@H]2O` [Estriol-3-sulphate]: the “inhibition of binding” value was “inhibited estradiol binding” in assay [1] (soluble steroid at 100 μM) and “inhibited only at very high concentrations” in assay [1] (soluble steroid at 100 μM, listed as Estriol-3 sulphate).

As to `C[C@]12CC[C@H]3[C@@H](CCC4=CC(=O)CC[C@@]43C)[C@@H]1CC[C@@H]2O` [testosterone], the “inhibition of binding” value in assay [1] (soluble steroid at 30 μM) is given as “inhibited estradiol binding; also recorded: showed inhibition”. Moreover, in assay [4], the “selectivity for estradiol over the steroid” value is on record as “approximately 1,000 fold” and the Kd came to 15 µM.

On to `C[C@]12CC[C@@H]3c4ccc(O[C@@H]5O[C@H](C(=O)O)[C@@H](O)[C@H](O)[C@H]5O)cc4CC[C@H]3[C@@H]1C[C@@H](O)[C@@H]2O` [estriol-3-β-D-glucuronide], for which the “inhibition of binding” value in assay [1] (setting [6]) is “neither cholesterol nor estriol-3-β-D-glucuronide inhibited”; in assay [1] (soluble steroid 5 nM to 100 mM (or the limit solubility of the steroid), listed as Estriol-3-β-D-glucuronide), “did not show any inhibition”.

In the case of `CC(C)CCC[C@@H](C)[C@H]1CC[C@H]2[C@@H]3CC=C4C[C@@H](O)CC[C@]4(C)[C@H]3CC[C@]12C` [cholesterol], in assay [1] (setting [6]), the “inhibition of binding” value was “neither cholesterol nor estriol-3-β-D-glucuronide inhibited; also recorded: did not show any inhibition”.

With `C[C@]12CC[C@@H]3c4ccc(O)cc4CC[C@H]3[C@@H]1C[C@@H](O)[C@@H]2O` [Estriol, estriol], in assay [1] (soluble steroid at 30 μM), the “inhibition of binding” value was “did not inhibit estradiol binding”. Take `C[C@]12CC[C@@H]3c4ccc(O)cc4CC[C@H]3[C@@H]1C[C@@H](O)[C@H]2O` [17-epiestriol]: in assay [1] (soluble steroid at 100 μM), the “inhibition of binding” value is “inhibited estradiol binding; also recorded: inhibited only at very high concentrations”.

With `C[C@]12CCC(=O)C[C@@H]1CC[C@@H]1[C@@H]2CC[C@]2(C)[C@@H](O)CC[C@@H]12` [dihydrotestosterone], the “inhibition of binding” value is “showed inhibition” in assay [1] (soluble steroid at 30 μM) and “inhibited estradiol binding” in assay [1] (soluble steroid at 30 μM, listed as Dihydrotestosterone). `C[C@]12CC[C@@H]3c4ccc(O)cc4CC[C@H]3[C@@H]1C[C@H](O)[C@@H]2O` [16-epiestriol]: the “inhibition of binding” value in assay [1] (soluble steroid at 100 μM) was “inhibited estradiol binding; also recorded: inhibited only at very high concentrations”. For the same molecule, in assay [4], the Kd worked out at 163 µM. Regarding `C[C@]12CC[C@@H]3c4ccc(O)cc4CC[C@H]3[C@@H]1CC[C@@H]2O` [estradiol, 1,3,5.estratriene 3,17 β-diol], in assay [5], the Kd is 0.0037 µM.

These data come from US5977319A, “Specific binding members for estradiol; materials and methods” (Cambridge Antibody Technology Limited, priority 1997, dated 1999).
